Source: patent publication US11286263B2, “Macrocyclic fluorine substituted indole derivatives” (The Broad Institute, Inc., priority 2017, dated 2022)
Structures can show the parent of a compound that is named as a salt. Where two headings read alike, the source gives them in different places.

Key:
MCL-1 = MCL-1 (Homo sapiens (Human), UniProt Q07820, K194A/K197A/R201A); assay: Protein-protein interaction assay MCL-1/Noxa BH3 peptide (MCL-1 assay), TR-FRET; type: binding; details: MCL-1/Noxa BH3 peptide TR-FRET; median
Sequence of MCL-1 (Q07820 whole entry K194A/K197A/R201A, looked up): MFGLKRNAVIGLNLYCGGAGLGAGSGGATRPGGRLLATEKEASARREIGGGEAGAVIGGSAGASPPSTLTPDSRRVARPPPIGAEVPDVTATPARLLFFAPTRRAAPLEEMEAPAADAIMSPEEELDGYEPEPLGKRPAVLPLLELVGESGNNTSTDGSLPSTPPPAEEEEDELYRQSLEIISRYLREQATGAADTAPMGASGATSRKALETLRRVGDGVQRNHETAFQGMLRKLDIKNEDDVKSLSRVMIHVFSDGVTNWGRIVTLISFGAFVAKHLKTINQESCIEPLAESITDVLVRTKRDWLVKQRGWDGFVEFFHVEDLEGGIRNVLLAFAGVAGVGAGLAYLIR
Procedure, shortened: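 TR-FRET competition between MBP-MCL-1 (173-321, 1 nM) and biotin-Noxa BH3 peptide (1 nM) with anti-MBP-Eu/streptavidin-XL665; 11 compound levels 0.1 nM–20 μM, 10 min preincubation. Incubated 1 h at 22 °C then overnight at 4 °C, pH 7 Tris buffer. 665/620 ratio normalized to DMSO and no-MCL-1; 4-parameter IC50.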

SUDHL10 = assay: Induction of cytotoxicity, SUDHL10 (Assay 6); details: read-out: IC50 Cytotox SUDHL10 [M] (median), SUDHL10 cells, 5 h, CellTiter-Glo
Protocol: In principle, compounds that induce apoptosis will concomitantly induce cell cytotoxicity. Therefore, cytotoxicity assays were run in parallel in SUDHL5 and SUDHL10 cells.
The different cell lines were plated in culture medium (RPMI 1640 [GIBCO #22400-089] supplemented with 10% Fetal Bovine Serum) at a density of 3,300 cells in 30 μl/well in a sterile, solid black, flat bottom, polystyrene, TC-treated 384-well microplate (Corning #3571) using Multidrop Combi Reagent Dispenser. As a control, medium without cells was also added to the plate. Cells were incubated in a humidified incubator at 37° C. overnight. On the next day, the cells were treated with compounds (stock solution, 10 mM in DMSO) using the HP D300 Digital Dispenser in a concentration range of 3.3×10e-5 M (33 μM) to 5×10e-9 M (5 nM) in a single-dot curve with at least 16 dilutions and a DMSO concentration of 0.33%. Rim wells were excluded. The cells were incubated for 5 h hours in a humidified incubator at 37° C. After this incubation, 30 μl of CellTiter-Glo® Luminescent Cell Viability reagent (Promega, G7573) was added to each well using the Multidrop Combi Reagent Dispenser, followed by 15 min incubation on a shaker at room temperature. Finally, luminescence was read at 0.1 ms, with a gain of 3000 using the PHERAstar FS microplate reader (BMG Labtech).
The Bella DRC Master Sheet was used to calculate IC50s, with fixed CI=0 and C0=1.

SMILES	IC50 (MCL-1) [µM]	IC50 (SUDHL10; Homo sapiens, SU-DHL10, 5 h) [M]	IC50 (SUDHL10) [M]
CCc1nn(C)c2c1-c1c(F)ccc3c(CCCOc4cc(C)c(Cl)c(C)c4)c(C(=O)O)n(c13)CCCCOC2 (racemic) [Example 46, (rac)-1-(3-(4-chloro-3,5-dimethylphenoxy)propyl)-12-ethyl-13-fluoro-10-methyl-4,5,6,7,9,10-hexahydropyrazolo[4′,3′:9,10][1]oxa[6]azacycloundecino[8,7,6-hi]indole-2-carboxylic acid]	0.002	5.7e-06	–
CCc1c2c(nn1C)CN(C)CCCCn1c(C(=O)O)c(CCCOc3cccc4c3CCC4)c3ccc(F)c-2c31 (racemic) [Example 51, (rac)-7-[3-(2,3-dihydro-1H-inden-4-yloxy)propyl]-3-ethyl-4-fluoro-2,14-dimethyl-10,11,12,13,14,15-hexahydro-2H-pyrazolo[3′,4′:8,9][1,6]diazacycloundecino[10,11,1-hi]indole-8-carboxylic acid]	0.00091	3.6e-07	–
CCc1c2c(nn1C)CN(C)CCCCn1c(C(=O)O)c(CCCOc3cccc4c3CCCC4)c3ccc(F)c-2c31 (racemic) [Example 52, (rac)-3-ethyl-4-fluoro-2,14-dimethyl-7-[3-(5,6,7,8-tetrahydronaphthalen-1-yloxy)propyl]-10,11,12,13,14,15-hexahydro-2H-pyrazolo[3′,4′:8,9][1,6]diazacycloundecino[10,11,1-hi]indole-8-carboxylic acid]	0.0017	3.1e-07	–
CCc1c2c(nn1C)CN(C)CCCCn1c(C(=O)O)c(CCCOc3cccc4cc(F)ccc34)c3ccc(F)c-2c31 (racemic) [Example 53, (rac)-3-ethyl-4-fluoro-7-{3-[(6-fluoro-1-naphthyhoxy]propyl}-2,14-dimethyl-10,11,12,13,14,15-hexahydro-2H-pyrazolo[3′,4′:8,9][1,6]diazacycloundecino[10,11,1-hi]indole-8-carboxylic acid]	0.00091	6.9e-07	–
CCc1c2c(nn1C)CN(C)CCCCn1c(C(=O)O)c(CCCOc3cccc4ccccc34)c3ccc(F)c-2c31 (racemic) [Example 54, (rac)-3-ethyl-4-fluoro-2,14-dimethyl-7-[3-(1-naphthyloxy)propyl]-10,11,12,13,14,15-hexahydro-2H-pyrazolo[3′,4′:8,9][1,6]diazacycloundecino[10,11,1-hi]indole-8-carboxylic acid]	0.00072	1.4e-06	–
Cc1c2c(nn1C)COCCCCn1c(C(=O)O)c(CCCOc3cccc4ccccc34)c3ccc(F)c-2c31 (single isomer, unassigned; enantiomer 1) [Example 3, 4-fluoro-2,3-dimethyl-7-[3-(naphthalen-1-yloxy)propyl]-2,10,11,12,13,15-hexahydropyrazolo-[4′,3′:9,10][1,6]oxazacycloundecino[8,7,6-hi]indole-8-carboxylic acid-N-ethylethanamine salt (enantiomer 1)]	0.0013	1.1e-06	–
CCc1c2c(nn1C)COCCCCn1c(C(=O)O)c(CCCOc3cccc4ccccc34)c3ccc(F)c-2c31 (single isomer, unassigned; enantiomer 1) [Example 7, 3-ethyl-4-fluoro-2-methyl-7-{3-[(naphthalen-1-yl)oxy]propyl}-2,10,11,12,13,15-hexahydro-pyrazolo[4′,3′:9,10][1,6]oxazacycloundecino[8,7,6-hi]indole-8-carboxylic acid-N-ethylethanamine salt (enantiomer 1)]	0.00097	–	1.3e-06
Cc1c2c(nn1C)COCCCCn1c(C(=O)O)c(CCCOc3cccc4cc(F)ccc34)c3ccc(F)c-2c31 (single isomer, unassigned; enantiomer 1) [Example 13, 4-fluoro-7-{3-[(6-fluoronaphthalen-1-yl)oxy]propyl}-2,3-dimethyl-2,10,11,12,13,15-hexahydro-pyrazolo[4′,3′:9,10][1,6]oxazacycloundecino[8,7,6-hi]indole-8-carboxylic acid-N-ethylethanamine salt (enantiomer 1)]	0.00098	–	8e-07
Cc1c2c(nn1C)COCCCCn1c(C(=O)O)c(CCCOc3ccc(F)c4ccccc34)c3ccc(F)c-2c31 (single isomer, unassigned; enantiomer 1) [Example 16, 4-fluoro-7-{3-[(4-fluoronaphthalen-1-yl)oxy]propyl}-2,3-dimethyl-2,10,11,12,13,15-hexahydro-pyrazolo[4′,3′:9,10][1,6]oxazacycloundecino[8,7,6-hi]indole-8-carboxylic acid (enantiomer 1)]	0.0019	–	4.3e-06
CCc1c2c(nn1C)COCCCCn1c(C(=O)O)c(CCCOc3cccc4cc(F)ccc34)c3ccc(F)c-2c31 (single isomer, unassigned; enantiomer 1) [Example 22, 3-ethyl-4-fluoro-7-{3-[(6-fluoronaphthalen-1-yl)oxy]propyl}-2-methyl-2,10,11,12,13,15-hexahydropyrazolo[4′,3′:9,10][1,6]oxazacycloundecino[8,7,6-hi]indole-8-carboxylic acid-N-ethylethanamine salt (enantiomer 1)]	0.00045	–	5.5e-07
CCc1c2c(nn1C)COCCCCn1c(C(=O)O)c(CCCOc3cccc4cc(F)ccc34)c3ccc(F)c-2c31 (single isomer, unassigned; enantiomer 1) [Example 24, 3-ethyl-4-fluoro-7-{3-[(6-fluoronaphthalen-1-yl)oxy]propyl}-2-methyl-2,10,11,12,13,15-hexahydropyrazolo[4′,3′:9,10][1,6]oxazacycloundecino[8,7,6-hi]indole-8-carboxylic acid (enantiomer 1)]	0.00058	–	6.8e-07
CCc1c2c(nn1C)COCCCCn1c(C(=O)O)c(CCCOc3ccc(F)c4ccccc34)c3ccc(F)c-2c31 (single isomer, unassigned; enantiomer 1) [Example 27, 3-ethyl-4-fluoro-7-{3-[(4-fluoronaphthalen-1-yl)oxy]propyl}-2-methyl-2,10,11,12,13,15-hexahydropyrazolo[4′,3′:9,10][1,6]oxazacycloundecino[8,7,6-hi]indole-8-carboxylic acid-N-ethylethanamine salt (enantiomer 1)]	0.0015	–	1.8e-06
CCc1nn(C)c2c1-c1c(F)ccc3c(CCCOc4cccc5cc(F)ccc45)c(C(=O)O)n(c13)CCCCOC2 (single isomer, unassigned; enantiomer 1) [Example 39, 3-ethyl-4-fluoro-7-{3-[(6-fluoronaphthalen-1-yl)oxy]propyl}-1-methyl-1,10,11,12,13,15-hexahydropyrazolo[4′,3′:9,10][1,6]oxazacycloundecino[8,7,6-hi]indole-8-carboxylic acid-N-ethylethanamine salt (enantiomer 1)]	0.0008	–	1e-06
CCc1nn(C)c2c1-c1c(F)ccc3c(CCCOc4ccc(F)c5ccccc45)c(C(=O)O)n(c13)CCCCOC2 (single isomer, unassigned; enantiomer 1) [Example 42, 3-ethyl-4-fluoro-7-{3-[(4-fluoronaphthalen-1-yl)oxy]propyl}-1-methyl-1,10,11,12,13,15-hexahydropyrazolo[4′,3′:9,10][1,6]oxazacycloundecino[8,7,6-hi]indole-8-carboxylic acid (enantiomer 1)]	0.0017	–	9.6e-06
